From a melting point compilation (Tetko et al.; mined from patent text by program, amines drawn as free bases though some values may be those of a salt)

Row | melting point | SMILES
1 | 76 °C | O=C(OCC(Cl)(Cl)Cl)N1CCCC(C(=O)OCc2ccccc2)(C(=O)OCc2ccccc2)C1
2 | 159 to 161 °C | CCOC(=O)c1cn(-c2ccccc2)c2ccc(CN3CCOCC3)cc2c1=O
3 | 138 °C | CC(C)(C)C(=O)Nc1ncccc1CNC1CCN(Cc2ccccc2)CC1
4 | 186 °C | CS(=O)(=O)C(=C1CN(C(c2ccccc2)c2ccccc2)C1)c1ccc(F)cc1
5 | 152 to 154 °C | Cc1nc(C#CCCc2nc3ccccc3o2)c[nH]1
6 | 146 to 148 °C | O=C1CCc2cc(Cl)c(S(=O)(=O)Cl)cc21
7 | 211 to 212 °C | COC(=O)C1=C(C)NC(C)=C(S(C)(=O)=O)C1c1ccccc1[N+](=O)[O-] (centres undefined)
8 | 96 to 98 °C | CCOC(=O)/C=C/c1ccc(N2CCC(=O)CC2)cc1
9 | 171 to 172 °C | CCN1c2ncc(CNc3cccc([N+](=O)[O-])c3)cc2C(=O)N(C)c2ccc(Cl)nc21
10 | 82 to 84 °C | COc1ccc(O)c(CNc2ccccc2)c1
11 | 149 to 151 °C | CCOCc1nc2c(N)nc3ccccc3c2s1
12 | 172 °C | O=C(NC(Cc1ccccc1)C(=O)O)c1ccc2cc(NCc3ccccc3)ccc2c1 (centres undefined)
13 | 308 to 310 °C | O=C1CCC(N2Cc3c(OCc4ccc(S(=O)(=O)N5CCOCC5)cc4)cccc3C2=O)C(=O)N1 (centres undefined)
14 | 164 to 165 °C | O=CNc1ccc(OCCNCC(O)c2ccc(O)cc2)cc1 (centres undefined)
15 | 84 to 85 °C | CCOC(=O)c1cc(-c2ccc(Cl)cc2)cnc1C(F)(F)F
16 | 225 to 227 °C | O=C1CNC(=O)C(CSC(c2ccccc2)(c2ccccc2)c2ccccc2)N1 (centres undefined)
17 | 175 to 177 °C | CCOC(=O)c1cccc(-c2c(C)c(NC(=O)CC(C)(C)C)c(C)c3c2OCC3c2ccc(C(C)C)cc2)c1 (centres undefined)
18 | 89 to 90 °C | CCN(CC)CCOc1ccc(C(O)(CC)c2cc(C)ccc2C)cc1 (centres undefined)
19 | 86.4 to 87.4 °C | CCCCOCCOc1ccc(-c2ccc(N(C)CCOC)c(C=CC(=O)O)c2)cc1
20 | 190 to 192 °C | COc1cc(C(=O)NS(=O)(=O)c2ccccc2)ccc1CN1CCOc2ccc(NC(=O)CC3CCCC3)cc21
21 | 151 to 153 °C | Cc1ccc2c(c1)c(-c1ccc(F)cc1)c(C)n2C1=CCN(CCN2CCNC2=O)CC1
22 | 176 to 177 °C | COc1nc(SC)nc(Cl)c1C(=O)NCc1ncccn1

Row | melting point | SMILES
23 | 180 to 182 °C | O=C(O)COc1cccc2c1CCc1sc(SCc3ccccc3)nc1-2
24 | > 250 °C | Nc1scc2c(-c3n[nH]c(=O)o3)nn(-c3ccccc3)c(=O)c12
25 | 223 °C | O=C(O)c1ccc2c(c1)S(=O)c1ccccc1O2 (centres undefined)
26 | 225 to 228 °C | CC(=O)ONC(=N)c1ccc(NC(=O)CCCC(=O)Nc2ccc(C(=N)NOC(C)=O)cc2)cc1
27 | 259 to 260 °C | CC1CN2C(=O)c3nc[nH]c3N(Cc3ccc(Cl)cc3)C2=N1 (centres undefined)
28 | 81 to 84 °C | CC=CCn1c(C)c(C)c2cnnc(OCc3ccccc3)c21
29 | 136 to 140 °C | Cc1cc(C)n(-c2nccc(Nc3ccc(Cl)cc3)n2)n1
30 | 207 °C | Cc1cc(-c2cc(C(F)(F)F)n3ncc(C(=O)Nc4cc(S(=O)(=O)NC(C)(C)CO)sc4Cl)c3n2)ccc1C(F)(F)F
31 | 65 to 67 °C | CC(=O)CCCSc1cc(C(C)(C)C)c(O)c(C(C)(C)C)c1
32 | 188 °C | Nc1c(Cl)cc(-c2nn(C3CCN(CCCC(F)(F)F)CC3)c(=O)o2)c2c1OCCO2
33 | 118 to 120 °C | CNc1cn(-c2cncc(F)c2)nc1C1CC1
34 | > 300 °C | Cc1nc2ccccc2n1-c1nc(Cl)nc(Cl)n1
35 | 212 to 215 °C | c1ccc(C2(c3ccccc3)Oc3ccc(-c4nnn[nH]4)cc3O2)cc1
36 | 279 to 283 °C | C[C@H]1Cc2c(F)c(F)cc3c(=O)c(C(=O)O)cn1c23
37 | > 260 °C | O=C(Cn1c(-c2ccc(Cl)cc2)nc2cccnc21)Nc1nccs1
38 | 160 to 174 °C | N#Cc1ccc(-c2cn(-c3ccc(I)cc3)c(SCC(O)CO)n2)cc1 (centres undefined)
39 | 92 to 100 °C | CC(C)(C(=O)O)c1ccc(OCCNC(=O)C2Cc3ccccc3N2S(=O)(=O)c2ccc(-c3cc(C(F)(F)F)ccc3Cl)cc2)cc1 (centres undefined)
40 | 162 °C | Cc1ccc(S(=O)(=O)N=CN(C)C)cc1Br
41 | 96 °C | O=C(CC(=O)C(F)(F)F)c1ccc(-n2cccn2)cc1
42 | 131 to 133 °C | O=[N+]([O-])c1ccc(CO)c(Sc2ccccc2O)c1
43 | 244 °C | COc1cccc(-n2nc(C)c3ccc([N+](=O)[O-])cc32)c1C#N
44 | 69.5 to 70 °C | CCOC(=O)NC(=O)C(Cl)C(C)=O (centres undefined)

Row | melting point | SMILES
45 | 115 to 116 °C | Cc1cc(C)n2ncc(Br)c2n1
46 | 95 to 97 °C | COc1ccc(CN(Cc2ccc(OC)cc2)c2nccc(-c3ccc(-c4ccc(N(c5ccccc5)c5ccccc5)cc4)cc3)n2)cc1
47 | 265 to 266 °C | CC(C)(C)OC(=O)c1ccc(NC2CCc3cc4nc(CO)[nH]c(=O)c4cc32)cc1 (racemic)
48 | 65 to 67 °C | CCCCCC(CC(=O)Nc1cc(C(N)=O)ccc1C(C)(C)C)c1ccc(OCCCOC)cc1OC (centres undefined)
49 | 199 to 200 °C | CS(=O)(=O)Nc1cc2occ(NS(C)(=O)=O)c(=O)c2cc1Oc1ccccc1
50 | 114 to 115 °C | C=CCOC(=O)C1N2C(=O)C(NC(=O)CC(=O)OCC)C2S(=O)(=O)C1(C)C (centres undefined)
51 | 165 to 167 °C | CC(=O)N1CCCC2(Cc3cc([N+](=O)[O-])ccc3O2)C1 (centres undefined)
52 | 178 °C | N#Cc1nccc2cccc(-n3cccc3)c12
53 | 165 to 166 °C | COc1ccc(-c2nn(C(C)C)c(=O)c(C(N)=O)c2-c2ccc(OC)cc2)cc1
54 | 158 to 160 °C | Cc1cc(F)ccc1-c1nc(NC(C)(CO)CO)nc2c1ccc(=O)n2-c1c(F)cccc1F
55 | 174 to 175 °C | CCCOc1ccc2[nH]c3c([N+](=O)[O-])ccc(Cl)c3c(=O)c2c1
56 | 162 to 165 °C | O=[N+]([O-])c1cccc(-c2nnc(Cl)s2)c1
57 | 72 to 77 °C | CCCCCN(CCC12CC3CC(CC(C3)C1)C2)C(=O)NCC(CC)Cc1ccncc1 (centres undefined)
58 | 40 to 42 °C | CCNc1c(C(=O)OCC)c(C)nc(OCC)c1[N+](=O)[O-]
59 | 88 to 89 °C | CN(CCO)c1cc(C(c2cc(F)ccc2F)S(=O)(=O)c2ccc(Cl)cc2)c(Cl)cn1 (centres undefined)
60 | 190 to 192 °C | O=CNC1=NN(c2cccc(Cl)n2)CC1
61 | 228 to 230 °C | O=C1Nc2cc(Cl)cc(Cl)c2C1=O
62 | 127 to 129 °C | Nc1c(I)cc(Cl)cc1I
63 | 111 to 112 °C | CC1(C)CC(=O)C2C3CCCOC3C2(C)C1 (centres undefined)
64 | 215 to 217 °C | O=C(c1ccccc1)c1nc(Br)c(Br)[nH]1
65 | 106 to 124 °C | COC(=O)CN1CCN(C)c2cc(Nc3ncc(Cl)c(Nc4ccccc4NS(C)(=O)=O)n3)ccc2C1

Row | SMILES | melting point
66 | COC(=O)C(O)(c1ccc(OC)cc1)c1ccc(OC)cc1 | 110 °C
67 | CCC(C)c1cc(Cc2cc(C(C)CC)c(N)c(C)c2Cl)c(Cl)c(C)c1N (centres undefined) | 94 to 102 °C
68 | CCOC(=O)COc1cccc(NC(=O)NC2N=C(c3ccccc3F)c3ccccc3N(CC(=O)N3CC4CCC(CC4)C3)C2=O)c1 (racemic) | 156 to 158 °C
69 | COC1c2c(ccc3cnn(CC(C)N)c23)OCC1O (centres undefined) | 105 to 108 °C
